Values quoted from earlier work, collected in article PMC8252455, “Prediction of a clinically effective dose of THY1773, a novel V 1B receptor antagonist, based on preclinical data” (Biopharmaceutics & Drug Disposition, 2021).

Tested on: depressive symptoms
Design: method as in Griebel, Beeské, & Stahl, 2012
Settings: patients with MDD; ref Griebel, Beeské, & Stahl, 2012; cited from earlier work

## COc1ccc(S(=O)(=O)N2C(=O)[C@@](c3ccccc3OC)(N3C[C@H](O)C[C@H]3C(=O)N(C)C)c3cc(Cl)ccc32)c(OC)c1 [SSR149415]
  Antidepressant effect in MDD trials: failed to demonstrate clear antidepressant effects
